Measurements from ChEMBL document CHEMBL3860023, “Structural optimization of pyridine-type DAPY derivatives to exploit the tolerant regions of the NNRTI binding pocket” (Eur J Med Chem, 2016).

Tests used:
[1] = Cytotoxicity against mock-infected human MT4 cells assessed as reduction in cell viability after 5 days by MTT assay; assay type: toxicity, cell-based
[2] = Selectivity index, ratio of CC50 for mock-infected human MT4 cells to EC50 for HIV1 RES056 expressing reverse transcriptase K103N/Y181C double mutant; assay type: toxicity, cell-based; conditions: read-out: Ratio CC50/EC50
[3] = test system: Human immunodeficiency virus 1; experiment: Antiviral activity against HIV1 RES056 expressing reverse transcriptase K103N/Y181C double mutant infected in human MT4 cells assessed as protection against virus-induced cytopathic effect after 5 days by MTT assay; assay type: functional, cell-based; conditions: Human immunodeficiency virus 1, RES056, MT4, 120 h
[4] = Solubility of the compound; assay type: physicochemical
[5] = Selectivity index, ratio of CC50 for mock-infected human MT4 cells to EC50 for HIV1 3B expressing wild type reverse transcriptase; assay type: toxicity, cell-based; conditions: read-out: Ratio CC50/EC50
[6] = test system: Human immunodeficiency virus 1; experiment: Antiviral activity against HIV1 3B expressing wild type reverse transcriptase infected in human MT4 cells assessed as protection against virus-induced cytopathic effect after 5 days by MTT assay; assay type: functional, cell-based; conditions: Human immunodeficiency virus 1, 3B, MT4, 120 h
[7] = molecular target: Human immunodeficiency virus type 1 reverse transcriptase (Human immunodeficiency virus 1, UniProt Q72547); experiment: Inhibition of recombinant wild type HIV1 p66/p51 using poly(rA) template/oligo(dT)16 primer after 40 mins by PicoGreen-based spectrofluorometric method

Compound	CC50 at 120 h [1]	selectivity ratio [2]	EC50 [3]	solubility [4]	selectivity ratio [5]	EC50 [6]	IC50 [7]
Cc1cc(C)c(Oc2cc(Cl)nc(NC3CCN(Cc4ccccc4)CC3)c2)c(C)c1	9700 nM	< 1	> 9700 nM	> 287 µM	63	150 nM	287 nM
Cc1cc(C#N)cc(C)c1Oc1cc(Cl)nc(NC2CCN(Cc3ccccc3)CC2)c1	4300 nM	< 1	> 4300 nM	> 56 µM	88	49 nM	168 nM
Cc1cc(C#N)cc(C)c1Oc1cc(Cl)nc(NC2CCN(Cc3ccc(S(C)(=O)=O)cc3)CC2)c1	1500 nM	< 1	> 1500 nM	> 48 µM	168	9.1 nM	80 nM
Cc1cc(C)c(Oc2cc(Cl)nc(NC3CCN(Cc4ccc(S(C)(=O)=O)cc4)CC3)c2)c(C)c1	1200 nM	< 1	> 1100 nM	> 49 µM	46	25 nM	160 nM
O=C1Nc2ccc(Cl)cc2[C@@](C#CC2CC2)(C(F)(F)F)O1 [EFAVIRENZ]	> 6300 nM		240 nM			6.8 nM	
Cc1cc(C)c(Oc2cc(Cl)nc(Nc3ccc(CN4CCOCC4)cc3)c2)c(C)c1	26000 nM	< 1	> 26000 nM	> 57 µM	11	2400 nM	2620 nM
Cc1cc(C)c(Oc2cc(Nc3ccc(C#N)cc3)nc(OCCCN3CCOCC3)c2)c(C)c1	18800 nM	< 1	> 18800 nM	> 11 µM	18	1100 nM	4060 nM
Cc1cc(C#N)cc(C)c1Oc1cc(Cl)nc(NC2CCN(CC3CC3)CC2)c1	9600 nM			> 304 µM	≤ 2	≥ 6400 nM	
COc1cc(Oc2c(C)cc(C#N)cc2C)cc(NC2CCN(Cc3ccc(S(C)(=O)=O)cc3)CC2)n1	1700 nM	< 1	> 1700 nM	> 48 µM	133	12 nM	175 nM
Cc1cc(C)c(Oc2cc(Cl)nc(Nc3ccc(C#N)cc3)c2)c(C)c1	10800 nM	< 1	> 10800 nM	> 14 µM	26	410 nM	248 nM
Cc1cc(C#N)cc(C)c1Oc1cc(Cl)nc(NC2CCN(Cc3ccncc3)CC2)c1	9700 nM	≤ 1	≥ 6500 nM	> 56 µM	1070	9.1 nM	40 nM
Cc1cc(C#N)cc(C)c1Oc1cc(Cl)nc(NC2CCN(Cc3ccc(C(N)=O)cc3)CC2)c1	9800 nM	≤ 1	≥ 9700 nM	> 51 µM	1010	10 nM	90 nM
Cc1cc(C#N)cc(C)c1Oc1nc(Nc2ccc(C#N)cc2)nc(N)c1Br [ETRAVIRINE]	> 4600 nM			< 1 µM		9.5 nM	
Cc1cc(C)c(Oc2cc(Cl)nc(NC3CCN(Cc4ccc(S(N)(=O)=O)cc4)CC3)c2)c(C)c1	5400 nM	≤ 1	≥ 9400 nM	> 49 µM	161	33 nM	159 nM
Cc1cc(C)c(Oc2cc(Cl)nc(NC3CCN(Cc4ccncc4)CC3)c2)c(C)c1	10400 nM	≤ 1	≥ 10500 nM	> 57 µM	247	42 nM	82 nM
COc1cc(Oc2c(C)cc(C#N)cc2C)cc(NC2CCN(Cc3ccc(S(N)(=O)=O)cc3)CC2)n1	10000 nM	1	6800 nM	> 48 µM	1280	7.8 nM	132 nM

Compound	CC50 at 120 h [1]	selectivity ratio [2]	EC50 [3]	solubility [4]	selectivity ratio [5]	EC50 [6]	IC50 [7]
Cc1cn([C@H]2C[C@H](N=[N+]=[N-])[C@@H](CO)O2)c(=O)[nH]c1=O [ZIDOVUDINE]	> 93500 nM	> 15000			> 13400		
COc1cc(Oc2c(C)cc(C#N)cc2C)cc(NC2CCN(Cc3ccccc3)CC2)n1	3500 nM	< 1	> 3500 nM	> 56 µM	37	100 nM	264 nM
Cc1cc(C#N)cc(C)c1Oc1cc(Cl)nc(NC2CCN(Cc3ccc(S(N)(=O)=O)cc3)CC2)c1	7000 nM	< 1	> 7000 nM	> 48 µM	946	7.4 nM	57 nM
Cc1cc(C)c(Oc2cc(Cl)nc(NC3CCN(Cc4ccc(C(N)=O)cc4)CC3)c2)c(C)c1	8200 nM	< 1	> 8200 nM	> 52 µM	230	35 nM	98 nM
COc1cc(Oc2c(C)cc(C#N)cc2C)cc(NC2CCN(Cc3ccc(C(N)=O)cc3)CC2)n1	22900 nM	≤ 3	≥ 6600 nM	> 257 µM	1140	20 nM	113 nM
CC(C)Nc1cccnc1N1CCN(C(=O)c2cc3cc(NS(C)(=O)=O)ccc3[nH]2)CC1 [DELAVIRDINE]	> 36200 nM		> 36200 nM		> 59		
Cc1cc(C)c(Oc2cc(Cl)nc(NC3CCN(CC4CCC4)CC3)c2)c(C)c1	4600 nM			> 60 µM	< 1	> 4600 nM	
Cc1cc(C)c(Oc2cc(Cl)nc(NC3CCN(CC4CC4)CC3)c2)c(C)c1	5200 nM			> 62 µM	< 1	> 5200 nM	
Cc1cc(C#N)cc(C)c1Oc1cc(Cl)nc(Nc2ccc(C#N)cc2)c1	57700 nM	< 1	> 57700 nM	> 3 µM	54	1070 nM	773 nM
Nc1ccn([C@@H]2CS[C@H](CO)O2)c(=O)n1 [LAMIVUDINE]	> 87200 nM				> 28	3100 nM	
COc1cc(Oc2c(C)cc(C#N)cc2C)cc(NC2CCN(CC3CC3)CC2)n1	8600 nM			> 307 µM	≤ 1	≥ 9200 nM	
COc1cc(Oc2c(C)cc(C#N)cc2C)cc(NC2CCN(Cc3ccncc3)CC2)n1	20800 nM	3	6200 nM	> 11 µM	1570	13 nM	81 nM
Cc1cc(C#N)cc(C)c1Oc1cc(Cl)nc(NC2CCN(CC3CCC3)CC2)c1	4200 nM	< 1	> 4200 nM	> 59 µM	< 1	> 4200 nM	
Cc1cc(C#N)cc(C)c1Oc1cc(Cl)nc(Nc2ccc(CN3CCOCC3)cc2)c1	7000 nM	< 1	> 6900 nM	> 56 µM	7	930 nM	1320 nM
Cc1ccnc2c1NC(=O)c1cccnc1N2C1CC1 [NEVIRAPINE]	> 15000 nM		≥ 9800 nM				
